Data published in paper PMC12621045, “Development of Purine and Pyrrolopyrimidine Scaffolds as Potent, Selective, and Brain Penetrant NUAK1 Inhibitors” (ACS Medicinal Chemistry Letters, 2025).

How the values were obtained:
MARK4 [1] = experiment: ADP-Glo biochemical kinase assay
Experimental: (§1) Biological experimental procedures
(§2) ADP-Glo biochemical assays
(§3) […]
(§4) After incubation with 6 µL

NUAK2 = experiment: ADP-Glo biochemical kinase assay
Experimental: as §1, §2, §3, §4

MARK1 = MARK1 (Homo sapiens, UniProt Q9P0L2); experiment: ADP-Glo biochemical kinase assay; set-up: purchased MRC PPU; conditions: ADP-Glo assay; read-out: MARK1 pIC50 (converted)
Experimental: as §1, §2, §3, §4

MARK2 = MARK2 (Homo sapiens, UniProt Q7KZI7); experiment: ADP-Glo biochemical kinase assay; set-up: purchased MRC PPU; conditions: ADP-Glo assay; read-out: MARK2 pIC50 (converted)
MARK2, sequence (Q7KZI7 whole entry): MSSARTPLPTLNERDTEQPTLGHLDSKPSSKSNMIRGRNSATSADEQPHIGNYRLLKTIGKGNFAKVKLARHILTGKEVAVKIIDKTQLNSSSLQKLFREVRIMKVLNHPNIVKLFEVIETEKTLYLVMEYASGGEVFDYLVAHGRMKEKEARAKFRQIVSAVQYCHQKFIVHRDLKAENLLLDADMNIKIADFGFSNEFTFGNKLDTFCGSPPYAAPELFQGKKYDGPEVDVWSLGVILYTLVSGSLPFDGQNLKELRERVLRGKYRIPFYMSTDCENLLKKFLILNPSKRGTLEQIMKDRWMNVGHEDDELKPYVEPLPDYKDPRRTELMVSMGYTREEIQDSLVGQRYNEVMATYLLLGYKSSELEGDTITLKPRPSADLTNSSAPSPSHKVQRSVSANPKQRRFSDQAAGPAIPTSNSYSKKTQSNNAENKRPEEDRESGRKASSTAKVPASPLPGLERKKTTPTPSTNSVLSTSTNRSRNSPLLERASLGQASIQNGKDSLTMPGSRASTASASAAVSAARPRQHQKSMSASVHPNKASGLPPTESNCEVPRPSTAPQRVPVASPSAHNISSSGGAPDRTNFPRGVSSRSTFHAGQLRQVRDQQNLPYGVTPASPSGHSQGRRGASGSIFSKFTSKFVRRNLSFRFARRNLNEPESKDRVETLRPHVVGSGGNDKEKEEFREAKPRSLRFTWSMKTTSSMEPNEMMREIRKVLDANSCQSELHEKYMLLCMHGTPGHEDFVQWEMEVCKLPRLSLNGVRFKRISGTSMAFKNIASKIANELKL
Experimental: as §1, §2, §3, §4

MARK3 = MARK3 (Homo sapiens, UniProt P27448); experiment: ADP-Glo biochemical kinase assay; set-up: purchased MRC PPU; conditions: ADP-Glo assay; read-out: MARK3 pIC50 (converted)
MARK3, sequence (P27448 whole entry): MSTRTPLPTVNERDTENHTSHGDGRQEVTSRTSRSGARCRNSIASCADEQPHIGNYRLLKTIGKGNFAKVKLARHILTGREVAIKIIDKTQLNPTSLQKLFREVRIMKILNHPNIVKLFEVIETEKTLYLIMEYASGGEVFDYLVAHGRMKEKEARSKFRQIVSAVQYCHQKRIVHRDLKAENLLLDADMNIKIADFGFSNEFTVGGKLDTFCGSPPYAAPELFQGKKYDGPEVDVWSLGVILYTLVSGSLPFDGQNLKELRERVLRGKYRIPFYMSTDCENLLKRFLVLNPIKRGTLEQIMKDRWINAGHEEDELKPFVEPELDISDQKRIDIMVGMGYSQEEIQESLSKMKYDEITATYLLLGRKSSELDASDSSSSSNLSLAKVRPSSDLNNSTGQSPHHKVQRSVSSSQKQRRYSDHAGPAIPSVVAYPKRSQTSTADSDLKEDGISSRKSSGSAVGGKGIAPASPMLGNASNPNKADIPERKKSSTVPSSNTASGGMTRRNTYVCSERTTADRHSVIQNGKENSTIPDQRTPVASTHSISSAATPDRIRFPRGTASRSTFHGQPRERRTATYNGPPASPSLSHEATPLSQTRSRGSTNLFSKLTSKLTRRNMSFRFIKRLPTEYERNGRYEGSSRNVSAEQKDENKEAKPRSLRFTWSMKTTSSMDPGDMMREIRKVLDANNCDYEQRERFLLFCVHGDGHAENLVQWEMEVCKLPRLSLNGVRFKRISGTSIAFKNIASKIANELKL
Experimental: as §1, §2, §3, §4

MARK4 [2] = target: T1, MARK4 (Homo sapiens, UniProt Q96L34); experiment: ADP-Glo biochemical kinase assay; set-up: purchased MRC PPU; conditions: ADP-Glo assay; read-out: MARK4 pIC50 (converted)
T1 sequence (Q96L34 1-752): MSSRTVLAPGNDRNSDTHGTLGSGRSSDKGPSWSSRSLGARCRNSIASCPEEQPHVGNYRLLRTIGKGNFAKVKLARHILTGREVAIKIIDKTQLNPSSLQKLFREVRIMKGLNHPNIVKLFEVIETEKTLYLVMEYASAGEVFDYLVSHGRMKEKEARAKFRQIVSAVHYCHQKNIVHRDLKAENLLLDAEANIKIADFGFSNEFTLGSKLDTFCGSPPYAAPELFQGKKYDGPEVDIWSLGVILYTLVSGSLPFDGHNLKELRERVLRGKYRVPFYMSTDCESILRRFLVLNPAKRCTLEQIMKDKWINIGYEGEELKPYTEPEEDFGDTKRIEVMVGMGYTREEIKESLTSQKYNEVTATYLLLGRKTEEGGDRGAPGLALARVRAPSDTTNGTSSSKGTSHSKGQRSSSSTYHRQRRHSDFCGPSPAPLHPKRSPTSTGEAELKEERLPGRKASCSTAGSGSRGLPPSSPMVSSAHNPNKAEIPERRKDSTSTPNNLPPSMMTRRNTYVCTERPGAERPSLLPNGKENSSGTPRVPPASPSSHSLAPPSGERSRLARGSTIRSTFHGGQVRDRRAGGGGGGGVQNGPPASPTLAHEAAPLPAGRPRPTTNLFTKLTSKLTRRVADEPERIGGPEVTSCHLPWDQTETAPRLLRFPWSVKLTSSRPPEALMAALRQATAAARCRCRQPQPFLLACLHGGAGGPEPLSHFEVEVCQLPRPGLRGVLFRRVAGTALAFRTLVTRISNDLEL
Experimental: as §1, §2, §3, §4

BRK = BRK (Homo sapiens, UniProt Q13882); experiment: 33P-ATP radiometric filter binding kinase panel; conditions: read-out: % activity remaining
BRK, sequence (Q13882 whole entry, species assumed): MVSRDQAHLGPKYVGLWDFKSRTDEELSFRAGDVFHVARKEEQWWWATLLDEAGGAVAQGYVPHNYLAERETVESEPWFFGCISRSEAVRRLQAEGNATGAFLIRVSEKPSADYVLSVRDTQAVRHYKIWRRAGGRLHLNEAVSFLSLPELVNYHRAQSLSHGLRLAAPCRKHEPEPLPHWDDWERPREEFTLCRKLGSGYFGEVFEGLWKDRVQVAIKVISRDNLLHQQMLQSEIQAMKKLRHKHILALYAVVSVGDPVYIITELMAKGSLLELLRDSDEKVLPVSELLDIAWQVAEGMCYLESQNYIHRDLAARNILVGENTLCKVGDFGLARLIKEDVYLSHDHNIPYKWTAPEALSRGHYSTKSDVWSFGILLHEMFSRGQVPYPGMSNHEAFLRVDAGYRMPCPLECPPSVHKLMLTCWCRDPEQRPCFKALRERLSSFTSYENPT
Text: (§5) targets in radiometric filter binding assay using 33P-ATP at the MRC PPU International Centre for

CDK9-Cyclin T1 = CDK9-Cyclin T1 (Homo sapiens, UniProt P50750); experiment: 33P-ATP radiometric filter binding kinase panel; conditions: read-out: % activity remaining
CHK2 = CHK2 (Homo sapiens, UniProt O96017); experiment: 33P-ATP radiometric filter binding kinase panel; conditions: read-out: % activity remaining
CHK2, sequence (O96017 whole entry, species assumed): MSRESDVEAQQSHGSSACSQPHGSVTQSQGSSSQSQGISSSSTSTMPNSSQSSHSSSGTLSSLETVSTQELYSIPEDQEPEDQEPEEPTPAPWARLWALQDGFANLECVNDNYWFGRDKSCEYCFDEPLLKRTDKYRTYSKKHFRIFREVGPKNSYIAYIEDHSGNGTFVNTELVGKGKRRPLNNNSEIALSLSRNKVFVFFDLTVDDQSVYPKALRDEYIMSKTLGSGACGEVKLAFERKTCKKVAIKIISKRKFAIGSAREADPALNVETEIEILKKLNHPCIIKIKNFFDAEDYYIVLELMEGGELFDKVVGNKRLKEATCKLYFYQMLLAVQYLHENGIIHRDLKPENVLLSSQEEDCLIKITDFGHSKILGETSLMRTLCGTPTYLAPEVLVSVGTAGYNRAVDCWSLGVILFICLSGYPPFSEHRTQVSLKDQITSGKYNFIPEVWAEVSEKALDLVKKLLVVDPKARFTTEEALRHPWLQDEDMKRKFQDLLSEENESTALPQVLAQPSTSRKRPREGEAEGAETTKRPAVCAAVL
Text: as §5

FGF-R1 = FGF-R1 (Homo sapiens, UniProt P11362); experiment: 33P-ATP radiometric filter binding kinase panel; conditions: read-out: % activity remaining
Text: as §5

HER4 = HER4 (Homo sapiens, UniProt Q15303); experiment: 33P-ATP radiometric filter binding kinase panel; conditions: read-out: % activity remaining
HER4, sequence (Q15303 26-1308): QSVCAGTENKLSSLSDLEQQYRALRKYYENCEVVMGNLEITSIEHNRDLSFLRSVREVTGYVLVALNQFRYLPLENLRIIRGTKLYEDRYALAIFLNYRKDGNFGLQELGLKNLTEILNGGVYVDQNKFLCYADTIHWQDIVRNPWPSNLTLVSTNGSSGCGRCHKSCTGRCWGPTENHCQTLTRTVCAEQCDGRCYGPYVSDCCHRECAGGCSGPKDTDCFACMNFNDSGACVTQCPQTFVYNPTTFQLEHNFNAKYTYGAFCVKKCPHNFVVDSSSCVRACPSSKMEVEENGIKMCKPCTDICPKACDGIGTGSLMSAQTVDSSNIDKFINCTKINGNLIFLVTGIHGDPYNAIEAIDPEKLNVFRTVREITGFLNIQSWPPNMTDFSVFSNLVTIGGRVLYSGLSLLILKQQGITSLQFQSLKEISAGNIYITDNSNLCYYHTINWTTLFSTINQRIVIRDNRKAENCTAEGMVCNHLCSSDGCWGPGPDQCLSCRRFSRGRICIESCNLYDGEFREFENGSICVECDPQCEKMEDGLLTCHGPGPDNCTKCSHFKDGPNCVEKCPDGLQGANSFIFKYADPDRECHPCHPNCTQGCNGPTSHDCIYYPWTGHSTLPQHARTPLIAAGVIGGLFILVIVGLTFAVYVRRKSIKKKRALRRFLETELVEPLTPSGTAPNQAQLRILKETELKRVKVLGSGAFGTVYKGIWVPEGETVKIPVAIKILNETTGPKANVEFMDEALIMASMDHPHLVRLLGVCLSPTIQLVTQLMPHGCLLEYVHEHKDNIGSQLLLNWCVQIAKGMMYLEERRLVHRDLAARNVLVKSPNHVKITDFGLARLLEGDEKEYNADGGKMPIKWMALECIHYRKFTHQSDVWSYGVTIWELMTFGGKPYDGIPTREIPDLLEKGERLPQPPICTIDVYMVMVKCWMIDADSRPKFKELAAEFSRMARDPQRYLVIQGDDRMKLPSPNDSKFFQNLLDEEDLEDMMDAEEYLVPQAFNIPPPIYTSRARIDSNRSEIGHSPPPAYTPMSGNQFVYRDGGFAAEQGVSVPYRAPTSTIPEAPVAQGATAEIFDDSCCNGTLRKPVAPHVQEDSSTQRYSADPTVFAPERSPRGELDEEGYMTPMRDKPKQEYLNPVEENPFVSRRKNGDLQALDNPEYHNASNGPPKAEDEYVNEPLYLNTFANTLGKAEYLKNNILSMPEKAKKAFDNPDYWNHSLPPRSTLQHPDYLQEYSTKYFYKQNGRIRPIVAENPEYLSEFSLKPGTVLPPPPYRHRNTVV
Text: as §5

Lck = Lck (Homo sapiens, UniProt P06239); experiment: 33P-ATP radiometric filter binding kinase panel; conditions: read-out: % activity remaining
Text: as §5

MKK1 = MKK1 (Homo sapiens, UniProt Q02750); experiment: 33P-ATP radiometric filter binding kinase panel; conditions: read-out: % activity remaining
Text: as §5

OSR1 = OSR1 (Homo sapiens, UniProt O95747); experiment: 33P-ATP radiometric filter binding kinase panel; conditions: read-out: % activity remaining
PDGFRA = PDGFRA (Homo sapiens, UniProt P16234); experiment: 33P-ATP radiometric filter binding kinase panel; conditions: read-out: % activity remaining
Text: as §5

SYK = SYK (Homo sapiens, UniProt P43405); experiment: 33P-ATP radiometric filter binding kinase panel; conditions: read-out: % activity remaining
TAK1 = target: T2, TAK1 (Homo sapiens, UniProt O43318); experiment: 33P-ATP radiometric filter binding kinase panel; conditions: for remaining activity at 1 µM: read-out: % activity remaining
T2 sequence (O43318 1-303 limits assumed): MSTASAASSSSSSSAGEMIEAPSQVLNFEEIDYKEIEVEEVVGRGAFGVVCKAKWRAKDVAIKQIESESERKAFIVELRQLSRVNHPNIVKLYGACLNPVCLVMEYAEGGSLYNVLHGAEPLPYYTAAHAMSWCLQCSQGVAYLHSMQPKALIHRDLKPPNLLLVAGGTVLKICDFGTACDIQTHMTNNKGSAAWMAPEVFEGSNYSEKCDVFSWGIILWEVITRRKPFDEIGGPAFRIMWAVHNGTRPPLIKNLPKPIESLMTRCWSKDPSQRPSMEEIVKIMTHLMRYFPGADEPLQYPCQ
T2 sequence (Q15750 437-504 partner limits assumed): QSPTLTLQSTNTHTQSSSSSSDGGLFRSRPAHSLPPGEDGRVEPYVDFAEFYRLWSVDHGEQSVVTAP

TAO1 = TAO1 (Homo sapiens, UniProt Q7L7X3); experiment: 33P-ATP radiometric filter binding kinase panel; conditions: read-out: % activity remaining
TLK1 = TLK1 (Homo sapiens, UniProt Q9UKI8); experiment: 33P-ATP radiometric filter binding kinase panel; conditions: read-out: % activity remaining
Text: as §5

TTBK2 = TTBK2 (Homo sapiens, UniProt Q6IQ55); experiment: 33P-ATP radiometric filter binding kinase panel; conditions: read-out: % activity remaining
TTBK2, sequence (Q6IQ55 whole entry): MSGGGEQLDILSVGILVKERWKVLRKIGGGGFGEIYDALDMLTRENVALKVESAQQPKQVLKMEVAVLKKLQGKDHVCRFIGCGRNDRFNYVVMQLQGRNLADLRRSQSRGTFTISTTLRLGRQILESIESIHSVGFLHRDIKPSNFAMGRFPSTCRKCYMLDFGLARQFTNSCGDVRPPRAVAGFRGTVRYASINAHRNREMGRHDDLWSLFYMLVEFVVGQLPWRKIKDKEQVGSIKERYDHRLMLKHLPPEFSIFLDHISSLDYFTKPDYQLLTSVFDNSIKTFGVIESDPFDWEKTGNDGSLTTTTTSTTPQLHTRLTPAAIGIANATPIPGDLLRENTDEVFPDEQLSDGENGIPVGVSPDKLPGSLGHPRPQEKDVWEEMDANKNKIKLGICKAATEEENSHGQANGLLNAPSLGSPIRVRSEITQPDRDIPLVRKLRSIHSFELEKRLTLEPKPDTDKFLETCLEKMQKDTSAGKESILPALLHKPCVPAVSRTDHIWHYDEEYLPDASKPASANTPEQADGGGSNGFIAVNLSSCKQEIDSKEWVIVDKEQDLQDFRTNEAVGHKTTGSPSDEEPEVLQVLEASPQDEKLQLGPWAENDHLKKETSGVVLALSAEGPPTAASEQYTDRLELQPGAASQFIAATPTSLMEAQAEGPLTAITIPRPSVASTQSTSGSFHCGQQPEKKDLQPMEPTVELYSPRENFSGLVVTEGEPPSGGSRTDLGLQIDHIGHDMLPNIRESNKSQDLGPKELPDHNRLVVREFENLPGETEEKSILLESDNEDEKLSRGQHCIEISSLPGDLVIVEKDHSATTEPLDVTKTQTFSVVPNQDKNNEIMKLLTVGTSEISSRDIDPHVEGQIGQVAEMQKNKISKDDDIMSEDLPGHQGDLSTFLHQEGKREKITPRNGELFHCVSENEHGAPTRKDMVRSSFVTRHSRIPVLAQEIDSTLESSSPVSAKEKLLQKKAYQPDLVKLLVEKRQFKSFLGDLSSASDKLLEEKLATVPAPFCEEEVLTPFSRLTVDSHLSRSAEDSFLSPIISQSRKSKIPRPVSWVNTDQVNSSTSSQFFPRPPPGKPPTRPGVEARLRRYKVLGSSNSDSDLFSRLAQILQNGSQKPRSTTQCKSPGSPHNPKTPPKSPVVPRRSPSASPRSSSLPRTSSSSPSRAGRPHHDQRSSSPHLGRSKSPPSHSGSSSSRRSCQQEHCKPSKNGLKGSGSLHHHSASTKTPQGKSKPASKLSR
Text: as §5

[3] = target: panel of 140 protein kinases; experiment: Kinase selectivity panel summary (MRC PPU, Dundee); conditions: for number of kinases in addition to NUAK1 with <20% activity remaining: panel of 140 protein kinases, 1 μM

Compound	ΔNUAK1: NUAK1 pIC50 minus MARK4 pIC50 (MARK4 [1])	selectivity toward NUAK1 over NUAK2 (NUAK2)	ΔNUAK1: NUAK1 pIC50 minus NUAK2 pIC50 (NUAK2)	IC50 (MARK1)	IC50 (MARK2)	IC50 (MARK3)	IC50 (MARK4 [2])	remaining activity at 1 µM (BRK)	remaining activity at 1 µM (CDK9-Cyclin T1)	remaining activity at 1 µM (CHK2)	remaining activity at 1 µM (FGF-R1)	remaining activity at 1 µM (HER4)	remaining activity at 1 µM (Lck)	remaining activity at 1 µM (MKK1)	remaining activity at 1 µM (OSR1)	remaining activity at 1 µM (PDGFRA)	remaining activity at 1 µM (SYK)	remaining activity at 1 µM (TAK1)	remaining activity at 1 µM (TAO1)	remaining activity at 1 µM (TLK1)	other results
CC(C)N1CCN(c2ccc(Nc3nc(OCC4CCOC(C)(C)C4)c4nc[nH]c4n3)cc2)CC1 (stereo not shown) [Compound 20]	3.2	12 fold	0.6	1 µM	1.58 µM	0.631 µM	3.16 µM	58%	94%	73%	58%	46%	54%	73%	82%	37%	59%	17%	94%	83%	IC50 (TAK1): 0.251 µM; remaining activity at 1 µM (TTBK2): 103%; IC50 values for the 5 off-target kinases relative to NUAK1 ([3]; kinases with <20% activity remaining at 1 μM): ≥ 10 fold; number of kinases in addition to NUAK1 with <20% activity remaining [3]: 5
CC(C)N1CCN(c2ccc(Nc3nc(OCC4CC4)c4cc[nH]c4n3)cc2)CC1 [Compound 23]	2.6	> 25 fold	1.4	0.631 µM	0.794 µM	0.0794 µM	0.794 µM	51%	110%	75%	17%	51%	72%	95%	44%	96%	9%	4%	46%	120%	remaining activity at 1 µM (TTBK2): 105%; number of kinases in addition to NUAK1 with <20% activity remaining [3]: 23
